Source: US7935685B2, “Process for preparation of inclusion compounds between a non-steroidal anti-inflammatory drug and betacyclodextrin by microwave treatment” (Chiesi Farmaceutici S.p.A., priority 2001, dated 2011)

Test: Dissolution rate of piroxicam from the solid phases, dispersed amount method (USP 25, NF 20)
Assay type: physicochemical
Conditions: 1 L distilled water, 37° C., paddle 50 rpm
Experimental: The dissolution rate of the samples under study was determined by the dispersed amount method according to the USP 25, NF 20, 2002. The test samples were introduced into vessels containing 1 L of distilled water each.
The test was conducted by maintaining the temperature of the dissolving bath at 37° C. and regulating the paddle rotation speed to 50 rpm.
The concentration of the drug in solution was determined at 2-minute intervals by spectrophotometry.
Each sample was analysed in triplicate.

% DISS (percentage compared with the initial dose of PRX in the sample) (T 0 min): 0%
% DISS (percentage compared with the initial dose of PRX in the sample) (T 2 min): 0.052%
% DISS (percentage compared with the initial dose of PRX in the sample) (T 4 min): 0.245%
% DISS (percentage compared with the initial dose of PRX in the sample) (T 6 min): 0.451%
% DISS (percentage compared with the initial dose of PRX in the sample) (T 8 min): 0.619%
% DISS (percentage compared with the initial dose of PRX in the sample) (T 10 min): 0.851%
% DISS (percentage compared with the initial dose of PRX in the sample) (T 20 min): 2.051%
% DISS (percentage compared with the initial dose of PRX in the sample) (T 30 min): 3.340%
% DISS (percentage compared with the initial dose of PRX in the sample) (T 40 min): 4.694%
% DISS (percentage compared with the initial dose of PRX in the sample) (T 50 min): 6.087%
% DISS (percentage compared with the initial dose of PRX in the sample) (T 60 min): 7.635%
Structure (SMILES): CN1C(C(=O)Nc2ccccn2)=C(O)c2ccccc2S1(=O)=O [PRX, piroxicam]
